The supplement of paper PMC8671470
± gives the standard deviation of the averaged measurements.

What was measured:
HL-60 = assay: cell viability (% survival relative to DMSO control); higher = less cytotoxic; conditions: 72 h
Summary of the method: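 HL-60 cells in RPMI 1640 with 10% FBS were rescreened against the full library on 384-well plates at five tenfold concentrations, 1–10,000 nM, in duplicate. Each screen was run with DMSO or 100 nM of one of three metabolic inhibitors, for 72 h at 37 °C, 5% CO2. Viability was read by CellTiter-Glo and normalised to DMSO and 10 μM proteasome-inhibitor wells. Where given, area under the curve came from four-parameter log-logistic fits (drc, PharmacoGx).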

MV4-11 = assay: cell viability (% survival relative to DMSO control, bortezomib = 0%); higher = less cytotoxic; conditions: 72 h
Summary of the method: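 Fifteen myeloid leukaemia cell lines (10 AML, 5 CML) were seeded at a density titrated to the linear growth range. They went into 384-well plates with compounds pre-printed at 1, 10, 100, 1000 or 10000 nM in duplicate. After 72 h at 37 °C with 5% CO2, viability was read by CellTiter-Glo luminescence. Values are percent survival, with vehicle set to 100% and a 10 µM positive control to 0%, averaged over the duplicates.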

[1] = 0.001 µM, co-treatment: AZD3965 100 nM
[2] = 0.001 µM, co-treatment: DMSO vehicle
[3] = 0.001 µM, co-treatment: GSK2194069 100 nM
[4] = 0.001 µM, co-treatment: pictilisib 100 nM
[5] = 0.01 µM, co-treatment: AZD3965 100 nM
[6] = 0.01 µM, co-treatment: DMSO vehicle
[7] = 0.01 µM, co-treatment: GSK2194069 100 nM
[8] = 0.01 µM, co-treatment: pictilisib 100 nM
[9] = 0.1 µM, co-treatment: AZD3965 100 nM
[10] = 0.1 µM, co-treatment: DMSO vehicle
[11] = 0.1 µM, co-treatment: GSK2194069 100 nM
[12] = 0.1 µM, co-treatment: pictilisib 100 nM
[13] = 1 µM, co-treatment: AZD3965 100 nM
[14] = 1 µM, co-treatment: DMSO vehicle
[15] = 1 µM, co-treatment: GSK2194069 100 nM
[16] = 1 µM, co-treatment: pictilisib 100 nM
[17] = 10 µM, co-treatment: AZD3965 100 nM
[18] = 10 µM, co-treatment: DMSO vehicle
[19] = 10 µM, co-treatment: GSK2194069 100 nM
[20] = 10 µM, co-treatment: pictilisib 100 nM

Row | SMILES | cell viability (HL-60; [1]) [%] | cell viability (HL-60; [2]) [%] | cell viability (HL-60; [3]) [%] | cell viability (HL-60; [4]) [%] | cell viability (HL-60; [5]) [%] | cell viability (HL-60; [6]) [%] | cell viability (HL-60; [7]) [%] | cell viability (HL-60; [8]) [%] | cell viability (HL-60; [9]) [%] | cell viability (HL-60; [10]) [%] | cell viability (HL-60; [11]) [%] | cell viability (HL-60; [12]) [%] | cell viability (HL-60; [13]) [%] | cell viability (HL-60; [14]) [%] | cell viability (HL-60; [15]) [%] | cell viability (HL-60; [16]) [%] | cell viability (HL-60; [17]) [%] | cell viability (HL-60; [18]) [%] | cell viability (HL-60; [19]) [%] | cell viability (HL-60; [20]) [%] | cell viability (MV4-11; 1 nM) [%] | cell viability (MV4-11; 10 nM) [%] | cell viability (MV4-11; 100 nM) [%] | cell viability (MV4-11; 1000 nM) [%] | cell viability (MV4-11; 10000 nM) [%]
1 | CCCCCCCCCCCC(=O)c1c(O)c(C(=O)CCCCCCCCCCC)c(O)c(C2CC(c3ccc(O)cc3)Oc3cc(O)ccc32)c1O (stereo not given) | 95.8 ± 4.7 | 99.8 ± 5.4 | 101 ± 3.5 | 107 ± 18 | 104 ± 2.3 | 98.29 ± 0.34 | 96.5 ± 1.7 | 107 ± 1.4 | 97.5 ± 3.7 | 99.11 ± 0.51 | 101 ± 3.1 | 99.9 ± 7.8 | 107 ± 11 | 102.2 ± 0.57 | 104 ± 11 | 101 ± 3.3 | 101 ± 3.6 | 104.7 ± 0.063 | 100 ± 3.4 | 95.4 ± 10 | 95.9 | 115 | 101 | 98.5 | 90.1
2 | CCOP(=O)(OCC)C(=Cc1cc(C(C)(C)C)c(O)c(C(C)(C)C)c1)P(=O)(OCC)OCC | 95.9 ± 1.6 | 100 ± 8 | 101 ± 4.7 | 96.4 ± 4 | 101 ± 5.9 | 105 ± 2.3 | 104 ± 5 | 99.31 ± 0.66 | 109 ± 18 | 99.5 ± 2.6 | 102 ± 2 | 107 ± 8.3 | 101 ± 7 | 104 ± 4 | 102 ± 1.5 | 94.9 ± 2 | 98 ± 5.1 | 105 ± 1.3 | 94.5 ± 9 | 103 ± 7.4 | 94.2 | 90.7 | 117 | 104 | 82
3 | COc1ccc(-c2ccccc2)cc1NS(=O)(=O)c1cc(Cl)cc(Cl)c1O | 99.4 ± 2.4 | 96.3 ± 2.8 | 93.5 ± 2.1 | 103 ± 10 | 102 ± 1.4 | 104.5 ± 0.32 | 99 ± 2.9 | 104 ± 4.6 | 99 ± 1.8 | 109 ± 14 | 109 ± 23 | 114 ± 19 | 96 ± 2.2 | 103 ± 3.8 | 92.7 ± 2.3 | 100 ± 4.6 | 99.06 ± 0.47 | 99 ± 3.5 | 98.5 ± 3.8 | 93.2 ± 18 | 98.8 | 96.1 | 117 | 86.3 | 98.3
4 | O=C(O)c1cc(Cl)cc(Cl)c1O [3,5-Dichlorosalicylic Acid] | 107 ± 1.5 | 104 ± 1.9 | 97.6 ± 4.4 | 80.1 ± 5.9 | 98.5 ± 2.3 | 105 ± 2.4 | 97 ± 9.9 | 93.1 ± 1.8 | 99.4 ± 1.1 | 101 ± 2.7 | 95.56 ± 0.17 | 100 ± 1.9 | 101 ± 4.1 | 106 ± 6.3 | 97.5 ± 9 | 107 ± 2.9 | 101 ± 4.9 | 101 ± 5.5 | 102 ± 7.3 | 103 ± 8.5 | 96 | 106 | 91.3 | 104 | 88.3
5 | O=C(O)C(=O)CBr [3-bromopyruvic acid] | 99.1 ± 3.7 | 99.1 ± 2 | 97.451 ± 0.0089 | 112 ± 3.5 | 101 ± 3.3 | 99.308 ± 0.03 | 96.2 ± 15 | 93.8 ± 6.9 | 99.2 ± 2.7 | 97.7 ± 1.7 | 98.9 ± 3.1 | 92.943 ± 0.068 | 98.3 ± 2.4 | 99.6 ± 2.4 | 103 ± 4 | 97.2 ± 8.2 | 95.8 ± 3.9 | 98 ± 1.7 | 98.5 ± 5.4 | 96.5 ± 13 | 93.7 | 94.7 | 88.4 | 101 | 99.8
